Here are results for 24 compounds from ChEMBL document CHEMBL1153212, “P4 capped amides and lactams as HCV NS3 protease inhibitors with improved potency and DMPK profile” (Bioorg Med Chem Lett, 2010).

One series concerns Hepatitis C virus. In words: Antiviral activity against HCV assessed as inhibition of viral RNA replication. In kind it is functional, Hepacivirus hominis.
Series [1] can be described thus: Selectivity for HCV NS4A-tethered single chain NS3 serine protease over human neutrophil elastase.
Series [2] is described as follows: Inhibition of HCV NS4A-tethered single chain NS3 serine protease by spectrophotometric assay. More on the design: species or system Hepacivirus hominis.
Series [3] can be described thus: AUC in rat at 10 mg/kg, po. In kind it is ADME, organism-based. Also noted: dose 10 mg/kg, route oral. As to conditions: plasma.

The EC90 is the concentration at which the effect reaches the 90% level. By Ki is commonly meant the equilibrium dissociation constant of an inhibitor or competing ligand from its target. A lower Ki goes with a stronger hold on the target. As a reminder, the AUC is the area under the concentration-time curve, a measure of exposure. Lower therefore signals less exposure.

With `C=CCNC(=O)C(=O)C(CCC)NC(=O)[C@@H]1[C@@H]2[C@H](CN1C(=O)[C@@H](NC(=O)N[C@@H](CN1CCCCC1=O)C(C)(C)C)C(C)(C)C)C2(C)C` (stereo not given in full), the EC90 with Hepatitis C virus was 350 nM. Besides, the Ratio in series [1] is on record as 320. The same compound returned an inhibition constant Ki in series [2] of 14 nM.

In the case of `C=CCNC(=O)C(=O)C(CCC)NC(=O)[C@@H]1[C@@H]2[C@H](CN1C(=O)[C@@H](NC(=O)N[C@@H](CN1CCCNC1=O)C(C)(C)C)C(C)(C)C)C2(C)C` (stereo not given in full), the EC90 with Hepatitis C virus was determined as 180 nM. For the same compound, the Ratio in series [1] was 360. In addition, the affinity in series [2] corresponds to a Ki of 4.9 nM. The compound also came in with an AUC in series [3] of 0.07 µM·h.

In the case of `C=CCNC(=O)C(=O)C(CCC)NC(=O)[C@@H]1[C@@H]2[C@H](CN1C(=O)[C@@H](NC(=O)N[C@@H](CN1CCC(C)(C)CC1=O)C(C)(C)C)C(C)(C)C)C2(C)C` (stereo not given in full), the EC90 with Hepatitis C virus is 80 nM. Further, the Ratio in series [1] was found to be 310. For the same compound, in series [2], the inhibition constant (Ki) turned out to be 17 nM. The AUC in series [3] was found to be 2.3 µM·h.

Turning to `C=CCNC(=O)C(=O)C(CCC)NC(=O)[C@@H]1[C@@H]2[C@H](CN1C(=O)[C@@H](NC(=O)N[C@@H](CN1CCCC(C)(C)C1=O)C(C)(C)C)C(C)(C)C)C2(C)C` (stereo not given in full), the Ratio in series [1] turned out to be 90. The Ki in series [2] is 89 nM.

In the case of `C=CCNC(=O)C(=O)C(CCC)NC(=O)[C@@H]1[C@@H]2[C@H](CN1C(=O)[C@@H](NC(=O)N[C@@H](CN1CCCC1=O)C(C)(C)C)C(C)(C)C)C2(C)C` (stereo not given in full), the EC90 in the series on Hepatitis C virus is 700 nM. Further, in series [1], the Ratio came to 60. This compound also returned a Ki in series [2] of 37 nM.

As for `C=CCNC(=O)C(=O)C(CCC)NC(=O)[C@@H]1[C@@H]2[C@H](CN1C(=O)[C@@H](NC(=O)N[C@@H](CN1CC3CCC(C3)C1=O)C(C)(C)C)C(C)(C)C)C2(C)C` (stereo not given in full), the EC90 in the series on Hepatitis C virus came to 60 nM. The Ratio in series [1] amounted to 613. Besides, in series [2], the affinity corresponds to a Ki of 8 nM. The AUC in series [3] turned out to be 0.53 µM·h.

Turning to `C=CCNC(=O)C(=O)C(CCC)NC(=O)[C@@H]1[C@@H]2[C@H](CN1C(=O)[C@@H](NC(=O)N[C@@H](CN1Cc3ccccc3C1=O)C(C)(C)C)C(C)(C)C)C2(C)C` (stereo not given in full), the Ratio in series [1] is 1500. Moreover, in series [2], the Ki came to 40 nM.

On to `C=CCNC(=O)C(=O)C(CCC)NC(=O)[C@@H]1[C@@H]2[C@H](CN1C(=O)[C@@H](NC(=O)N[C@@H](CN1CCCOC1=O)C(C)(C)C)C(C)(C)C)C2(C)C` (stereo not given in full), for which the EC90 in the series with Hepatitis C virus is 350 nM. For the same compound, in series [1], the Ratio came out at 100. Also, affinity in series [2] was put at a Ki of 10 nM.

Consider `C=CCNC(=O)C(=O)C(CCC)NC(=O)[C@@H]1[C@@H]2[C@H](CN1C(=O)[C@@H](NC(=O)N[C@@H](CN(C)C(=O)C1CC1)C(C)(C)C)C(C)(C)C)C2(C)C` (stereo not given in full), for which the Ratio in series [1] amounted to 280. The compound also registered a Ki in series [2] of 91 nM.

Compound `C=CCNC(=O)C(=O)C(CCC)NC(=O)[C@@H]1[C@@H]2[C@H](CN1C(=O)[C@@H](NC(=O)N[C@@H](CN(C)C(=O)C(C)(C)C)C(C)(C)C)C(C)(C)C)C2(C)C` (stereo not given in full) yielded a Ki in series [2] of 23000 nM.

`C=CCNC(=O)C(=O)C(CCC)NC(=O)[C@@H]1[C@@H]2[C@H](CN1C(=O)[C@@H](NC(=O)N[C@@H](CN(C)C(C)=O)C(C)(C)C)C(C)(C)C)C2(C)C` (stereo not given in full): the concentration for an effect of 90% (EC90) in the series on Hepatitis C virus worked out at 550 nM. For the same compound, the Ratio in series [1] was 150. In series [2], this compound showed a Ki of 37 nM.

Turning to `C=CCNC(=O)C(=O)C(CCC)NC(=O)[C@@H]1[C@@H]2[C@H](CN1C(=O)[C@@H](NC(=O)N[C@@H](CN(C)C(=O)C(F)(F)F)C(C)(C)C)C(C)(C)C)C2(C)C` (stereo not given in full), the Ratio in series [1] is on record as 75. This compound also came in with a Ki in series [2] of 42 nM.

`C=CCNC(=O)C(=O)C(CCC)NC(=O)[C@@H]1[C@@H]2[C@H](CN1C(=O)[C@@H](NC(=O)N[C@@H](CN1Cc3ccccc3CC1=O)C(C)(C)C)C(C)(C)C)C2(C)C` (stereo not given in full): in the series on Hepatitis C virus, the concentration for an effect of 90% (EC90) is 200 nM. In addition, the Ratio in series [1] came out at 250. This compound gave a Ki in series [2] of 19 nM.

With `C=CCNC(=O)C(=O)C(CCC)NC(=O)[C@@H]1[C@@H]2[C@H](CN1C(=O)[C@@H](NC(=O)N[C@@H](CN1CCC(C)(C)CC1=O)C(C)(C)C)C1CCCCC1)C2(C)C` (stereo not given in full), in the series on Hepatitis C virus, the EC90 amounted to 45 nM. Further, the Ratio in series [1] is 60. Besides, affinity in series [2] was put at a Ki of 1.9 nM. In addition, the AUC in series [3] worked out at 2.09 µM·h.

For `C=CCNC(=O)C(=O)C(CC1CC1)NC(=O)[C@@H]1[C@@H]2[C@H](CN1C(=O)[C@@H](NC(=O)N[C@@H](CN1CCC(C)(C)CC1=O)C(C)(C)C)C(C)(C)C)C2(C)C` (stereo not given in full), in the series with Hepatitis C virus, the EC90 stood at 70 nM. Besides, in series [1], the Ratio is 870. Further, the affinity in series [2] corresponds to a Ki of 15 nM. The compound also gave an AUC in series [3] of 3.52 µM·h.

Consider `C=CCNC(=O)C(=O)C(CC1CCC1)NC(=O)[C@@H]1[C@@H]2[C@H](CN1C(=O)[C@@H](NC(=O)N[C@@H](CN1CCC(C)(C)CC1=O)C(C)(C)C)C(C)(C)C)C2(C)C` (stereo not given in full), for which the EC90 with Hepatitis C virus was 70 nM. For the same compound, the Ratio in series [1] was 1900. In addition, affinity in series [2] was put at a Ki of 28 nM. This compound also yielded an AUC in series [3] of 1 µM·h.

For `C#CCCC(NC(=O)[C@@H]1[C@@H]2[C@H](CN1C(=O)[C@@H](NC(=O)N[C@@H](CN1CCC(C)(C)CC1=O)C(C)(C)C)C(C)(C)C)C2(C)C)C(=O)C(=O)NCC=C` (stereo not given in full), the EC90 in the series with Hepatitis C virus was 60 nM. Also, the Ratio in series [1] came to 210. In series [2], this compound registered a Ki of 5 nM. Also, the AUC in series [3] amounted to 0.49 µM·h.

Compound `C=CCNC(=O)C(=O)C(CCC)NC(=O)[C@@H]1[C@@H]2[C@H](CN1C(=O)[C@@H](NC(=O)OC(C)(C)C)C(C)(C)C)C2(C)C` (stereo not given in full) had a Ki in series [2] of 1500 nM.

In series [2], `C=CCNC(=O)C(=O)C(CCC)NC(=O)[C@@H]1[C@@H]2[C@H](CN1C(=O)[C@@H](NC(=O)N[C@@H](CN1CCCCC1)C(C)(C)C)C(C)(C)C)C2(C)C` (stereo not given in full) yielded a Ki of 2300 nM.

Turning to `C=CCNC(=O)C(=O)C(CCC)NC(=O)[C@@H]1[C@@H]2[C@H](CN1C(=O)[C@@H](NC(=O)N[C@@H](CN1CCCCC1=O)C(C)(C)C)C1CCCCC1)C2(C)C` (stereo not given in full), the EC90 in the series with Hepatitis C virus is 110 nM. For the same compound, the Ratio in series [1] was 7. Further, affinity in series [2] was put at a Ki of 1.8 nM. For the same compound, in series [3], the area under the curve (AUC) is 0.7 µM·h.

As to `C=CCNC(=O)C(=O)C(CCC)NC(=O)[C@@H]1[C@@H]2[C@H](CN1C(=O)[C@@H](NC(=O)N[C@@H](CN1CCCCC1=O)C(C)(C)C)C1Cc3ccccc3C1)C2(C)C` (stereo not given in full), the EC90 in the series on Hepatitis C virus was determined as 80 nM. Besides, in series [1], the Ratio worked out at 18. This compound also showed a Ki in series [2] of 9 nM. Moreover, the AUC in series [3] is 0.68 µM·h.

Turning to `C=CCNC(=O)C(=O)C(CCC)NC(=O)[C@@H]1[C@@H]2[C@H](CN1C(=O)[C@@H](NC(=O)N[C@@H](CN1CCC(C)(C)CC1=O)C(C)(C)C)C1Cc3ccccc3C1)C2(C)C` (stereo not given in full), the EC90 with Hepatitis C virus was found to be 80 nM. For the same compound, the Ratio in series [1] is 110. Besides, the Ki in series [2] is 7 nM.

Consider `C=CCNC(=O)C(=O)C(CCCC)NC(=O)[C@@H]1[C@@H]2[C@H](CN1C(=O)[C@@H](NC(=O)N[C@@H](CN1CCC(C)(C)CC1=O)C(C)(C)C)C(C)(C)C)C2(C)C` (stereo not given in full), for which the EC90 with Hepatitis C virus worked out at 80 nM. Moreover, the Ratio in series [1] is 850. For the same compound, in series [2], affinity was put at a Ki of 19 nM.

On to `CC(C)(C)NC(=O)N[C@H](C(=O)N1C[C@H]2[C@@H]([C@H]1C(=O)NC(CC1CCC1)C(=O)C(N)=O)C2(C)C)C(C)(C)C` (stereo not given in full) [BOCEPREVIR], for which, in the series on Hepatitis C virus, the EC90 worked out at 350 nM. Moreover, in series [2], the Ki is 14 nM.
